Reference: patent US20130039929A1, “METHOD TREATING BREAST CANCER” (priority 2010, published 2013)

Test system: HIF-1 dependent transcription
Assay: 5×HRE luciferase reporter assay of hypoxia (CoCl2)-induced transcription in MDAMB-231 cells
Type: cell-based
Details: CoCl2 along with thalidomide 10 μM
Excerpt: FIGS. 5A-5E. FIG. 5A. Schematic map of luciferase reporter used; HRE: hypoxia responsive element. FIG. 5B. Assay of hypoxia-induced luciferase activity in the presence of each indicated siRNA transfection. **p<0.001, * p<0.01 versus control/CoCl2 one-way ANOVA, Bonferroni post test. FIG. 5C. Western blot showing the efficiency of knockdown for each βarr isoform. FIG. 5D. Assay of hypoxia induced luciferase reporter activity in Mouse Embryonic Fibroblasts (MEFs) that are null for both βarr1 and 2 under control and βarr1 replete conditions. *** p<0.001, between the two cobalt treated samples, Bonferroni post test, one-way ANOVA, n=3. FIG. 5E. Western blot of lysates showing expression of transfected βarr1.
FIGS. 7A-7D. FIG. 7A. […] FIG. 7B. […] FIG. 7C. […] FIG. 7D.
To test if the above β-arrestin1-HIF-1α interaction has functional consequences, an analysis was made of the effect of β-arrestin1 expression on HIF-1-mediated transcription during hypoxia. One of the most characterized HIF-regulated genes is the potent endothelial mitogen, VEGF-A, which regulates endothelial cell proliferation and blood vessel formation in both normal and cancerous tissues (Liu et al, Circ. Res. 77:638-643 (1995)). The VEGF-A gene contains a HRE in its 5′ UTR (untranslated region) and hypoxia induces a rapid and sustained increase in VEGF-A mRNA levels. […]

SMILES: O=C1CCC(N2C(=O)c3ccccc3C2=O)C(=O)N1 (stereo not shown) [thalidomide]
- HIF-1 dependent transcriptional response (5×HRE luciferase reporter activity): complete inhibition
